Data from patent US10865216B2, “Tricyclic Gyrase inhibitors” (MERCK SHARP & DOHME CORP., priority 2012, dated 2020).
In brackets after ≈: the same amount, converted by molar mass. Where two headings read alike, the source gives them in different places.

Legend:
[1] = tested on: E. coli ATCC 25922; assay: MIC, E. coli ATCC 25922; assay type: cell-based; conditions: for MIC: Escherichia coli
[2] = tested on: S. aureus ATCC 13709; assay: MIC, S. aureus ATCC 13709; assay type: cell-based; conditions: for MIC: Staphylococcus aureus
[3] = E. coli, Alamar Blue read after overnight incubation at 35° C.
[4] = S. aureus, Alamar Blue read after overnight incubation at 35° C.
[5] = ATCC25922, E. coli, Alamar Blue read after overnight incubation at 35° C., read-out: MIC Ec
[6] = ATCC13709, S. aureus, Alamar Blue read after overnight incubation at 35° C., read-out: MIC Sa

| MIC Ec [1, 3] [µg/mL] | MIC Sa [2, 4] [µg/mL] | MIC [1, 5] [µg/mL] | MIC [2, 6] [µg/mL] | SMILES | also measured |
| --- | --- | --- | --- | --- | --- |
| 1 (≈ 2.09 µM) | ≤0.5 |  |  | CNc1cc(F)cc2c1[nH]c1nc(Oc3cnc4c(c3)OCCO4)nc(N3CC4CC(N)C4C3)c12 (centres unmarked) [Compound 4.294] |  |
| ≤0.5 | ≤0.5 |  |  | CCc1ncc(Oc2nc(N3CC4C(N)C4C3)c3c(n2)[nH]c2c(NC)cc(F)cc23)cn1 (centres unmarked) [Compound 4.258] |  |
| 1 (≈ 2.44 µM) | ≤0.5 |  |  | CNc1cc(F)cc2c1[nH]c1nc(Oc3cnc(N)nc3)nc(N3CCC(N)C3)c12 (centres unmarked) [Compound 4.179] |  |
| 2 (≈ 4.45 µM) | ≤0.5 |  |  | CNc1ncc(Oc2nc(N3CC4CC(N)C4C3)c3c(n2)[nH]c2c(NC)cc(F)cc23)cn1 (centres unmarked) [Compound 4.221] |  |
| 8 (≈ 18.9 µM) | 1 (≈ 2.36 µM) |  |  | CNc1cc(F)cc2c1[nH]c1nc(Oc3cnc(N)nc3)nc(N3CCCC(N)C3)c12 (centres unmarked) [Compound 4.180] |  |
| 2 (≈ 4.45 µM) | ≤0.5 |  |  | CNc1cc(F)cc2c1[nH]c1nc(Oc3cnc(N)nc3)nc(N3CC4CCC(N)C4C3)c12 (centres unmarked) [Compound 4.189] |  |
|  |  | > 16 | 8 (≈ 15.7 µM) | CNc1cc(F)cc2c1[nH]c1nc(Oc3cnc(C)nc3)nc(N3CC(N)C(C(=O)NCC(C)O)C3)c12 (centres unmarked) [Compound 4.439] |  |

The next lines start with the molecule.

| SMILES | MIC Ec [1, 3] [µg/mL] | MIC Sa [2, 4] [µg/mL] | MIC [1, 5] [µg/mL] | MIC [2, 6] [µg/mL] | also measured |
| --- | --- | --- | --- | --- | --- |
| CNc1cccc2c1[nH]c1nc(Oc3cnc(C)nc3)cc(Oc3cnc(C)nc3)c12 [Compound 3.38] |  |  | > 32 | 1 (≈ 2.42 µM) |  |
| CNc1cc(F)c(F)c2c1[nH]c1nc(Oc3cnc([C@H](C)O)nc3)nc(N3CC[C@]4(CC[C@H]4N)C3)c12 [Compound 10.93] |  |  |  |  | MIC Ec ([1]; Table 18, Ec): ≤ 0.5 µg/mL; MIC Sa ([2]; Table 18, Sa): ≤ 0.5 µg/mL |
| NC1CN(c2nc(Sc3cnc4ccc[n+]([O-])c4c3)nc3[nH]c4c(NC5CC5)cc(F)cc4c23)CC12CC2 (centres unmarked) [Compound 1.02] | >64 | 32 (≈ 60.5 µM) |  |  |  |
| CNc1cccc2c1[nH]c1nc(Sc3cncc(S(=O)(=O)N(C)C)c3)nc(N3CC4C(N)C4C3)c12 (centres unmarked) [Compound 1.22] |  |  | 8 (≈ 15.7 µM) | 1 (≈ 1.96 µM) |  |
| CNc1cccc2c1[nH]c1nc(Oc3cncc(F)c3)cc(N3CC(N)C4(CC4)C3)c12 (centres unmarked) [Compound 3.50] |  |  | 2 (≈ 4.78 µM) | ≤ 0.5 |  |
| CNc1cccc2c1[nH]c1nc(Sc3cnc4cccnc4c3)nc(N3C[C@H](N)C[C@@H]3CO)c12 [Compound 1.68] |  |  | 32 (≈ 67.7 µM) | 16 (≈ 33.9 µM) |  |
| CNc1cccc2c1[nH]c1nc(Sc3cnc4ccc[n+]([O-])c4c3)nc(N3CC4CC3CN4)c12 (centres unmarked) [Compound 1.57] |  |  | > 32 | > 32 |  |
| CNc1cc(F)cc2c1[nH]c1nc(NCc3cnc(C)nc3)nc(N3C[C@H]4C[C@@H]3C[C@H]4N)c12 [Compound 10.60] |  |  |  |  | MIC Ec ([1]; Table 18, Ec): 16 µg/mL (≈ 35.8 µM); MIC Sa ([2]; Table 18, Sa): 8 µg/mL (≈ 17.9 µM) |
| CNc1cc(F)cc2c1[nH]c1nc(Oc3cnc(C)nc3)nc(-c3ccc(Cl)cc3N)c12 [Compound 4.161] | ≤0.5 | ≤0.5 |  |  |  |
| CNc1cc(F)cc2c1[nH]c1nc(Nc3cccnc3)nc(N3C[C@H]4CC3C[C@H]4N)c12 |  |  |  |  | EC MIC ([1]; Table 13, L = NH): ≤ 0.5 µg/mL; SA MIC ([2]; Table 13, L = NH): ≤ 0.5 µg/mL |
| CNc1ncnc2c1[nH]c1nc(Oc3cnc(C)nc3)nc(N3CC(N)C4(CC4)C3)c12 (centres unmarked) [Compound 7.08] |  |  | > 64 | 16 (≈ 38.2 µM) |  |
| CNc1cc(F)cc2c1[nH]c1nc(Oc3cnc(C(C)O)nc3)nc(N3CC4(CC[C@]4(C)N)C3)c12 (some centres unmarked) [Compound 10.74] |  |  |  |  | MIC Ec ([1]; Table 18, Ec): 1 µg/mL (≈ 2.09 µM); MIC Sa ([2]; Table 18, Sa): ≤ 0.5 µg/mL |
| CNc1cc(F)c(C#N)c2c1[nH]c1nc(Oc3cnc(C)nc3)nc(N3C[C@H]4CCN[C@H]4C3)c12 [Compound 10.70] |  |  |  |  | MIC Ec ([1]; Table 18, Ec): ≤ 0.5 µg/mL; MIC Sa ([2]; Table 18, Sa): ≤ 0.5 µg/mL |
| CNc1cc(F)cc2c1[nH]c1nc(Oc3cnc(C)nc3)nc(N3CCOCC3)c12 [Compound 10.54] |  |  |  |  | MIC Ec ([1]; Table 18, Ec): ≤ 0.5 µg/mL; MIC Sa ([2]; Table 18, Sa): ≤ 0.5 µg/mL |
| CNc1cc(F)cc2c1[nH]c1nc(Oc3cnc(C)nc3)nc(N3CC(N)C(C(F)(F)F)C3)c12 (centres unmarked) [drawing 1824] |  |  |  |  | MIC ([1]; ATCC25922, Table 16, new R4 substituents, EC8 not defined, read-out: EC8 MIC): > 16 µg/mL; MIC ([2]; ATCC13709, Table 16, new R4 substituents, read-out: SA MIC): ≤ 0.5 µg/mL |
| CNc1cccc2c1[nH]c1nc(Oc3cnc4ccoc4c3)cc(N3CC4C(N)C4C3)c12 (centres unmarked) [Compound 3.23] |  |  | 2 (≈ 4.69 µM) | ≤ 0.5 |  |
| CNc1cc(F)cc2c1[nH]c1nc(Sc3cnc4ccc[n+]([O-])c4c3)nc(N3CC(N)C4(CC4)C3)c12 (centres unmarked) [Compound 1.63] |  |  | ≤ 0.5 | ≤ 0.5 |  |
| CNc1cc(F)cc2c1[nH]c1nc(Oc3cnc(NCC(O)CO)nc3)nc(N3C[C@H](N)C4(CC4)C3)c12 (some centres unmarked) [Compound 4.407] | >16 | 2 (≈ 3.93 µM) |  |  |  |
| CNc1cc(F)cc2c1[nH]c1nc(Oc3cnc(C(C)O)c(Cl)c3)nc(N3CC4C[C@@H](N)C4C3)c12 (some centres unmarked) [Compound 10.17] |  |  |  |  | MIC Ec ([1]; Table 18, Ec): ≤ 0.5 µg/mL; MIC Sa ([2]; Table 18, Sa): ≤ 0.5 µg/mL |
| CNc1cccc2c1[nH]c1nc(Sc3cncc(S(=O)(=O)NC)c3)nc(N3CC4C(N)C4C3)c12 (centres unmarked) [Compound 1.36] |  |  | 4 (≈ 8.05 µM) | 2 (≈ 4.03 µM) |  |
| CNc1cc(F)cc2c1[nH]c1nc(Oc3cnc(C)nc3)nc(N3CCCC(C)(N)C3)c12 (centres unmarked) [Compound 4.088] | 1 (≈ 2.29 µM) | ≤0.5 |  |  |  |
